One assay deals with Micrococcus luteus. Briefly: Antibacterial activity against Micrococcus luteus by CLSI guideline based broth microdilution method. Format: functional. (Dilution methods test growth across graded concentrations, often in twofold steps.)
A further assay concerns Streptococcus mutans. Briefly: Antibacterial activity against Streptococcus mutans by CLSI guideline based broth microdilution method. Format: functional.
Assay [1] relates to Staphylococcus epidermidis. Briefly: Antibacterial activity against Staphylococcus epidermidis by CLSI guideline based broth microdilution method. Format: functional.
In the next assay the test system is Bacillus cereus. Briefly: Antibacterial activity against Bacillus cereus by CLSI guideline based broth microdilution method. Format: functional.
A further assay has as its system Staphylococcus aureus. Put plainly: Antibacterial activity against Staphylococcus aureus by CLSI guideline based broth microdilution method. Format: functional.
The test system of another assay is Salmonella typhimurium. Put plainly: Antibacterial activity against Salmonella typhimurium by CLSI guideline based broth microdilution method. Format: functional, Salmonella enterica subsp. enterica serovar Typhimurium.
For another assay, the system named is Pseudomonas aeruginosa. Briefly: Antibacterial activity against Pseudomonas aeruginosa by CLSI guideline based broth microdilution method. Format: functional.
For a further assay, the system named is Escherichia coli. Briefly: Antibacterial activity against Escherichia coli by CLSI guideline based broth microdilution method. Format: functional.
Another assay has as its system Shigella flexneri. Briefly: Antibacterial activity against Shigella flexneri by CLSI guideline based broth microdilution method. Format: functional.

Values after ≈ are worked out from the molar mass of the structure shown.

Data on twelve compounds can be found in ChEMBL document CHEMBL4387786, “Mallopenins A-E, Antibacterial Phenolic Derivatives from the Fruits of Mallotus philippensis” (2019).

Regarding `CC1(C)C=Cc2c(O)c3c(c(CC(=O)O)c2O1)O[C@H](c1ccccc1)CC3=O`, the MIC (with Micrococcus luteus; with Streptococcus mutans; in assay [1]; in the assay on Bacillus cereus; in the assay with Staphylococcus aureus; in the assay on Salmonella typhimurium (Salmonella enterica)) was more than 100 µM each time. Moreover, the MIC against Pseudomonas aeruginosa, against Escherichia coli and in the assay with Shigella flexneri was more than 100 µM in each case.

Turning to `CC(=O)c1c(O)c(CC=C(C)C)c2c3c1OC1(C)CCC(C3C1)C(C)(C)O2` (racemic), the MIC (against Micrococcus luteus; in the assay with Streptococcus mutans; in [1]; against Bacillus cereus; against Staphylococcus aureus; in the assay with Salmonella typhimurium (Salmonella enterica)) was more than 100 µM throughout. The MIC against Pseudomonas aeruginosa, with Escherichia coli and in the assay with Shigella flexneri was more than 100 µM in each case.

Turning to GENTAMICIN, the MIC (usually the smallest concentration in the dilution series that meets the test's criterion for growth inhibition) worked out at 1 µM in the assay on Salmonella typhimurium (Salmonella enterica subsp. enterica serovar Typhimurium), 1 µM against Pseudomonas aeruginosa, 0.5 µM in the assay with Escherichia coli and 1 µM against Shigella flexneri.

Consider `CC(C)=CCC/C(C)=C/Cc1c(O)c2c(c(C(=O)/C=C/c3ccccc3)c1O)OC(C)(C)C=C2`, for which the MIC (with Micrococcus luteus; in the assay with Streptococcus mutans; in assay [1]; in the assay with Bacillus cereus; against Staphylococcus aureus; in the assay with Salmonella typhimurium (Salmonella enterica)) was more than 100 µM in each case. The MIC in the assay with Pseudomonas aeruginosa, against Escherichia coli and in the assay on Shigella flexneri was more than 100 µM in each case.

For `CC(=O)c1c(O)c(C)c(O)c(Cc2c(O)c(CC=C(C)C)c(O)c3c2OC(c2ccccc2)CC3=O)c1O` (centres undefined), the MIC against Micrococcus luteus is 30.9 µM (≈ 16 µg/mL); in the assay on Streptococcus mutans it was 30.9 µM (≈ 16 µg/mL); in assay [1], more than 100 µM; in the assay with Bacillus cereus it was 30.9 µM (≈ 16 µg/mL); against Staphylococcus aureus it was 61.8 µM (≈ 32 µg/mL); against Salmonella typhimurium (Salmonella enterica), more than 100 µM. Besides, the values for the MIC in the assay with Pseudomonas aeruginosa, against Escherichia coli and in the assay with Shigella flexneri were more than 100 µM, 30.9 µM (≈ 16 µg/mL) and more than 100 µM, respectively.

For the compound `CC(C)=CCc1c(O)c(C(=O)/C=C/c2ccccc2)c2c(c1O)[C@H]1[C@@H]3[C@@H](CC[C@]3(C)O2)C1(C)C`, the MIC (against Micrococcus luteus; in the assay with Streptococcus mutans; in assay [1]; against Bacillus cereus; against Staphylococcus aureus; with Salmonella typhimurium (Salmonella enterica)) was more than 100 µM each time. The MIC against Pseudomonas aeruginosa, against Escherichia coli and against Shigella flexneri was more than 100 µM each time.

Take `CC(=O)c1c(O)c(C)c(O)c(Cc2c(O)c3c(c(C(=O)/C=C/c4ccccc4)c2O)OC(C)(C)C=C3)c1O` [ROTTLERIN]: the MIC against Micrococcus luteus was 15.5 µM (≈ 8.01 µg/mL); with Streptococcus mutans it was 15.5 µM (≈ 8.01 µg/mL); in assay [1], more than 100 µM; against Bacillus cereus, 15.5 µM (≈ 8.01 µg/mL); with Staphylococcus aureus it was 15.5 µM (≈ 8.01 µg/mL); in the assay on Salmonella typhimurium (Salmonella enterica), more than 100 µM. The results for the MIC against Pseudomonas aeruginosa, against Escherichia coli and with Shigella flexneri were more than 100 µM, 15.5 µM (≈ 8.01 µg/mL) and more than 100 µM, respectively.

For the compound `CC(=O)c1c(O)c(C)c(O)c(Cc2c3c(c(O)c4c2OC(c2ccccc2)CC4=O)C=CC(C)(C)O3)c1O` (centres undefined), the MIC (in the assay on Micrococcus luteus; in the assay on Streptococcus mutans; in assay [1]; with Bacillus cereus; in the assay on Staphylococcus aureus; in the assay with Salmonella typhimurium (Salmonella enterica)) was more than 100 µM in each case. The MIC in the assay on Pseudomonas aeruginosa, against Escherichia coli and against Shigella flexneri was more than 100 µM each time.

`COCc1c2c(c(O)c3c1O[C@H](c1ccccc1)CC3=O)C=CC(C)(C)O2`: the MIC (against Micrococcus luteus; against Streptococcus mutans; in assay [1]; with Bacillus cereus; against Staphylococcus aureus; with Salmonella typhimurium (Salmonella enterica)) was more than 100 µM throughout. Further, the MIC against Pseudomonas aeruginosa, with Escherichia coli and against Shigella flexneri was more than 100 µM throughout.

In the case of `CC(=O)c1c(O)c(C)c(O)c(Cc2c(O)c3c(c(C(=O)/C=C/c4ccc(O)cc4)c2O)OC(C)(C)C=C3)c1O`, the minimal inhibitory concentration (MIC) against Micrococcus luteus is 30.1 µM (≈ 16 µg/mL); against Streptococcus mutans, 3.8 µM (≈ 2.02 µg/mL); in assay [1] it was more than 100 µM; against Bacillus cereus, 3.8 µM (≈ 2.02 µg/mL); in the assay on Staphylococcus aureus, 15 µM (≈ 7.99 µg/mL); in the assay with Salmonella typhimurium (Salmonella enterica), more than 100 µM. Further, the MIC against Pseudomonas aeruginosa is more than 100 µM; against Escherichia coli, 7.5 µM (≈ 3.99 µg/mL); with Shigella flexneri, more than 100 µM.

On to `CC(=O)c1c(O)c(C)c(O)c(Cc2c3c(c(O)c4c2OC(c2ccc(O)cc2)CC4=O)C=CC(C)(C)O3)c1O` (centres undefined), for which the minimal inhibitory concentration (MIC) is more than 100 µM with Micrococcus luteus; more than 100 µM in the assay on Streptococcus mutans; more than 100 µM in assay [1]; 30.1 µM (≈ 16 µg/mL) in the assay with Bacillus cereus; more than 100 µM in the assay with Staphylococcus aureus; more than 100 µM against Salmonella typhimurium (Salmonella enterica). Besides, the MIC with Pseudomonas aeruginosa, with Escherichia coli and in the assay on Shigella flexneri was more than 100 µM throughout.

In the case of `CN[C@H](CC(C)C)C(=O)N[C@H]1C(=O)N[C@@H](CC(N)=O)C(=O)N[C@H]2C(=O)N[C@H]3C(=O)N[C@H](C(=O)N[C@H](C(=O)O)c4cc(O)cc(O)c4-c4cc3ccc4O)[C@H](O)c3ccc(c(Cl)c3)Oc3cc2cc(c3O[C@@H]2O[C@H](CO)[C@@H](O)[C@H](O)[C@H]2O[C@H]2C[C@](C)(N)[C@H](O)[C@H](C)O2)Oc2ccc(cc2Cl)[C@H]1O` [VANCOMYCIN], the MIC was determined as 0.2 µM (≈ 0.29 µg/mL) against Micrococcus luteus; 0.2 µM (≈ 0.29 µg/mL) against Streptococcus mutans; 0.2 µM (≈ 0.29 µg/mL) in assay [1]; 0.1 µM (≈ 0.145 µg/mL) in the assay with Bacillus cereus; 0.2 µM (≈ 0.29 µg/mL) against Staphylococcus aureus.
